Experimental data as given in ChEMBL document CHEMBL1201862, “PubChem BioAssay data set” (2004).
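Dose response: 5 concentrations. Exposure: 48 h. Format: 96-well plates. Endpoint: linear interpolation; highest concentration if not reached. Abbreviation: GI50, concentration required for 50% inhibition of growth.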 Calls of active or inactive are those of the source. No stated cut-off is given here; in the data, active = GI50 up to about 1.1 µM and inactive = higher.

What was measured:
Assay in all cases: NCI anticancer screen, dose series, 48 h
MDA-MB-435 = tested on: MDA-MB-435
KM12 = tested on: KM12
Hs-578T = tested on: Hs-578T
MDA-N = tested on: MDA-N
T47D = tested on: T47D
HL-60 = tested on: HL-60
SK-MEL-2 = tested on: SK-MEL-2
MOLT-4 = tested on: MOLT-4
OVCAR-8 = tested on: OVCAR-8
Malme-3M = tested on: Malme-3M
SF-539 = tested on: SF-539
CCRF-CEM = tested on: CCRF-CEM
NCI-H522 = tested on: NCI-H522
SN12C = tested on: SN12C
HCC 2998 = tested on: HCC 2998
786-0 = tested on: 786-0
DU-145 = tested on: DU-145
LOX IMVI = tested on: LOX IMVI
SF-268 = tested on: SF-268
SF-295 = tested on: SF-295

CSc1ccc(NC(=O)Nc2cc(C)ccn2)cc1
GI50 (MDA-MB-435): > 100 µM (inactive) | GI50 (KM12): > 100 µM (inactive) | GI50 (Hs-578T): > 100 µM (inactive) | GI50 (MDA-N): > 100 µM (inactive) | GI50 (T47D): > 100 µM (inactive) | GI50 (HL-60): > 100 µM (inactive) | GI50 (SK-MEL-2): > 100 µM (inactive) | GI50 (MOLT-4): > 100 µM (inactive) | GI50 (OVCAR-8): > 100 µM (inactive) | GI50 (Malme-3M): > 100 µM (inactive) | GI50 (SF-539): 2.36 µM (inactive) | GI50 (CCRF-CEM): > 100 µM (inactive) | GI50 (NCI-H522): > 100 µM (inactive) | GI50 (SN12C): > 100 µM (inactive) | GI50 (HCC 2998): 91.4 µM (inactive) | GI50 (786-0): > 100 µM (inactive) | GI50 (DU-145): > 100 µM (inactive) | GI50 (LOX IMVI): > 100 µM (inactive) | GI50 (SF-268): > 100 µM (inactive) | GI50 (SF-295): > 100 µM (inactive)

CCOC(=O)C1C(=O)CC(C)(O)C(C(=O)OCC)C1c1ccc(OC)cc1 (stereo not given)
GI50 (MDA-MB-435): > 100 µM (inactive) | GI50 (KM12): > 100 µM (inactive) | GI50 (Hs-578T): > 100 µM (inactive) | GI50 (MDA-N): > 100 µM (inactive) | GI50 (T47D): > 100 µM (inactive) | GI50 (HL-60): > 100 µM (inactive) | GI50 (SK-MEL-2): > 100 µM (inactive) | GI50 (MOLT-4): > 100 µM (inactive) | GI50 (OVCAR-8): > 100 µM (inactive) | GI50 (Malme-3M): > 100 µM (inactive) | GI50 (SF-539): > 100 µM (inactive) | GI50 (CCRF-CEM): > 100 µM (inactive) | GI50 (NCI-H522): > 100 µM (inactive) | GI50 (SN12C): > 100 µM (inactive) | GI50 (HCC 2998): > 100 µM (inactive) | GI50 (786-0): > 100 µM (inactive) | GI50 (DU-145): > 100 µM (inactive) | GI50 (LOX IMVI): > 100 µM (inactive) | GI50 (SF-268): > 100 µM (inactive) | GI50 (SF-295): > 100 µM (inactive)

C[C@]12CC[C@@H]3c4cc(OCC(F)(F)F)c(O)cc4C(=O)C[C@H]3[C@@H]1CC[C@@H]2O
GI50 (MDA-MB-435): 1.78 µM (inactive) | GI50 (KM12): 10.6 µM (inactive) | GI50 (Hs-578T): 4.92 µM (inactive) | GI50 (MDA-N): 1.6 µM (inactive) | GI50 (T47D): 29.1 µM (inactive) | GI50 (HL-60): 1.84 µM (inactive) | GI50 (SK-MEL-2): 11.4 µM (inactive) | GI50 (MOLT-4): 3.5 µM (inactive) | GI50 (OVCAR-8): 23.1 µM (inactive) | GI50 (Malme-3M): 3.63 µM (inactive) | GI50 (SF-539): 5.09 µM (inactive) | GI50 (CCRF-CEM): 3.39 µM (inactive) | GI50 (NCI-H522): 3.3 µM (inactive) | GI50 (SN12C): 13.1 µM (inactive) | GI50 (HCC 2998): 6.11 µM (inactive) | GI50 (786-0): 10.8 µM (inactive) | GI50 (DU-145): 17.3 µM (inactive) | GI50 (LOX IMVI): 5.79 µM (inactive) | GI50 (SF-268): 13.7 µM (inactive) | GI50 (SF-295): 3.6 µM (inactive)

Cc1cc(NC2=CC(=O)C(=O)c3ccccc32)no1
GI50 (MDA-MB-435): 1.88 µM (inactive) | GI50 (KM12): 12.6 µM (inactive) | GI50 (Hs-578T): 9.4 µM (inactive) | GI50 (MDA-N): 1.85 µM (inactive) | GI50 (T47D): 11.9 µM (inactive) | GI50 (HL-60): 6.22 µM (inactive) | GI50 (SK-MEL-2): 4.75 µM (inactive) | GI50 (MOLT-4): 8.57 µM (inactive) | GI50 (OVCAR-8): 6.81 µM (inactive) | GI50 (Malme-3M): 2.49 µM (inactive) | GI50 (SF-539): 6.4 µM (inactive) | GI50 (CCRF-CEM): 9.66 µM (inactive) | GI50 (NCI-H522): 18.5 µM (inactive) | GI50 (SN12C): 2.88 µM (inactive) | GI50 (HCC 2998): 20.7 µM (inactive) | GI50 (786-0): 15.1 µM (inactive) | GI50 (DU-145): 16.4 µM (inactive) | GI50 (LOX IMVI): 1.84 µM (inactive) | GI50 (SF-268): 15.2 µM (inactive) | GI50 (SF-295): 9.1 µM (inactive)

O=CN1CCN(C(=O)c2ccc(Cl)cc2)C1=S
GI50 (MDA-MB-435): 14.8 µM (inactive) | GI50 (KM12): 12.7 µM (inactive) | GI50 (Hs-578T): 49.5 µM (inactive) | GI50 (MDA-N): 16.6 µM (inactive) | GI50 (T47D): 12.8 µM (inactive) | GI50 (HL-60): 23.3 µM (inactive) | GI50 (SK-MEL-2): 16.3 µM (inactive) | GI50 (MOLT-4): 19.2 µM (inactive) | GI50 (OVCAR-8): 15.6 µM (inactive) | GI50 (Malme-3M): 24.5 µM (inactive) | GI50 (SF-539): 26.6 µM (inactive) | GI50 (CCRF-CEM): 12.8 µM (inactive) | GI50 (NCI-H522): 14.8 µM (inactive) | GI50 (SN12C): 14.7 µM (inactive) | GI50 (HCC 2998): 19.8 µM (inactive) | GI50 (786-0): 6.79 µM (inactive) | GI50 (DU-145): 15.7 µM (inactive) | GI50 (LOX IMVI): 11.7 µM (inactive) | GI50 (SF-268): 19.2 µM (inactive) | GI50 (SF-295): 26.9 µM (inactive)

CC(C)(C)C1(COC(=O)c2ccc(N)cc2)COC1
GI50 (MDA-MB-435): 53.3 µM (inactive) | GI50 (KM12): 58.5 µM (inactive) | GI50 (Hs-578T): > 100 µM (inactive) | GI50 (MDA-N): 66.1 µM (inactive) | GI50 (T47D): 24.4 µM (inactive) | GI50 (HL-60): 26.3 µM (inactive) | GI50 (SK-MEL-2): > 100 µM (inactive) | GI50 (MOLT-4): 30.5 µM (inactive) | GI50 (OVCAR-8): 58.3 µM (inactive) | GI50 (Malme-3M): 89.7 µM (inactive) | GI50 (SF-539): 32.4 µM (inactive) | GI50 (CCRF-CEM): 46 µM (inactive) | GI50 (NCI-H522): 47.6 µM (inactive) | GI50 (SN12C): 94.6 µM (inactive) | GI50 (HCC 2998): 57.5 µM (inactive) | GI50 (786-0): 73.3 µM (inactive) | GI50 (DU-145): > 100 µM (inactive) | GI50 (LOX IMVI): > 100 µM (inactive) | GI50 (SF-268): > 100 µM (inactive) | GI50 (SF-295): 29.1 µM (inactive)

O=C(NCC(=O)N1CCCC1C(=O)OC(=O)C1CCCN1C(=O)CNC(=O)OCc1ccccc1)OCc1ccccc1 (stereo not given)
GI50 (MDA-MB-435): 22.5 µM (inactive) | GI50 (KM12): 18.2 µM (inactive) | GI50 (Hs-578T): > 100 µM (inactive) | GI50 (MDA-N): 25.3 µM (inactive) | GI50 (T47D): 44.9 µM (inactive) | GI50 (HL-60): 46.9 µM (inactive) | GI50 (SK-MEL-2): 20.4 µM (inactive) | GI50 (MOLT-4): 16.8 µM (inactive) | GI50 (OVCAR-8): 41.4 µM (inactive) | GI50 (Malme-3M): 19.1 µM (inactive) | GI50 (SF-539): 24.5 µM (inactive) | GI50 (CCRF-CEM): 35.9 µM (inactive) | GI50 (NCI-H522): 52.7 µM (inactive) | GI50 (SN12C): 31.8 µM (inactive) | GI50 (HCC 2998): 32.7 µM (inactive) | GI50 (786-0): 47.6 µM (inactive) | GI50 (DU-145): 52 µM (inactive) | GI50 (LOX IMVI): 17.7 µM (inactive) | GI50 (SF-268): 30.4 µM (inactive) | GI50 (SF-295): 22.1 µM (inactive)

CC1(C)Cc2c(c3ccccc3c3nc4c(nc23)c2c(c3ccccc34)OC(C)(C)C2)O1
GI50 (MDA-MB-435): > 100 µM (inactive) | GI50 (KM12): > 100 µM (inactive) | GI50 (Hs-578T): 39.4 µM (inactive) | GI50 (MDA-N): > 100 µM (inactive) | GI50 (T47D): > 100 µM (inactive) | GI50 (HL-60): > 100 µM (inactive) | GI50 (SK-MEL-2): > 100 µM (inactive) | GI50 (MOLT-4): > 100 µM (inactive) | GI50 (OVCAR-8): > 100 µM (inactive) | GI50 (Malme-3M): > 100 µM (inactive) | GI50 (SF-539): > 100 µM (inactive) | GI50 (CCRF-CEM): > 100 µM (inactive) | GI50 (NCI-H522): > 100 µM (inactive) | GI50 (SN12C): > 100 µM (inactive) | GI50 (HCC 2998): > 100 µM (inactive) | GI50 (786-0): > 100 µM (inactive) | GI50 (DU-145): > 100 µM (inactive) | GI50 (LOX IMVI): > 100 µM (inactive) | GI50 (SF-268): > 100 µM (inactive) | GI50 (SF-295): > 100 µM (inactive)

CNc1cccc(-c2cc(O)c3cc4c(cc3n2)OCO4)c1
GI50 (MDA-MB-435): 0.0378 µM (active) | GI50 (KM12): 0.177 µM (active) | GI50 (Hs-578T): 0.269 µM (active) | GI50 (MDA-N): 0.0296 µM (active) | GI50 (T47D): 52 µM (inactive) | GI50 (HL-60): 0.198 µM (active) | GI50 (SK-MEL-2): 0.385 µM (active) | GI50 (MOLT-4): 0.581 µM (active) | GI50 (OVCAR-8): 0.409 µM (active) | GI50 (Malme-3M): 0.168 µM (active) | GI50 (SF-539): 0.198 µM (active) | GI50 (CCRF-CEM): 0.236 µM (active) | GI50 (NCI-H522): 0.127 µM (active) | GI50 (SN12C): 0.553 µM (active) | GI50 (HCC 2998): 0.322 µM (active) | GI50 (786-0): 0.334 µM (active) | GI50 (DU-145): 0.303 µM (active) | GI50 (LOX IMVI): 0.372 µM (active) | GI50 (SF-268): 1.05 µM (active) | GI50 (SF-295): 2.28 µM (inactive)

N#C/C(=C\c1ccc2[nH]ccc2c1)C(=O)c1ccc(O)c(O)c1
GI50 (MDA-MB-435): 71.8 µM (inactive) | GI50 (KM12): > 100 µM (inactive) | GI50 (Hs-578T): 44.2 µM (inactive) | GI50 (MDA-N): > 100 µM (inactive) | GI50 (T47D): 62.8 µM (inactive) | GI50 (HL-60): 27.5 µM (inactive) | GI50 (SK-MEL-2): > 78.9 µM (inactive) | GI50 (MOLT-4): 44.7 µM (inactive) | GI50 (OVCAR-8): > 100 µM (inactive) | GI50 (Malme-3M): > 65.8 µM (inactive) | GI50 (SF-539): > 57.4 µM (inactive) | GI50 (CCRF-CEM): 24.5 µM (inactive) | GI50 (NCI-H522): 29.4 µM (inactive) | GI50 (SN12C): > 82.4 µM (inactive) | GI50 (HCC 2998): 66.7 µM (inactive) | GI50 (786-0): 43 µM (inactive) | GI50 (DU-145): 45.7 µM (inactive) | GI50 (LOX IMVI): 63.7 µM (inactive) | GI50 (SF-268): > 64.9 µM (inactive) | GI50 (SF-295): 61.4 µM (inactive)
